From patent publication EP4700025A1, “AMIDE COMPOUND, PHARMACEUTICAL COMPOSITION COMPRISING SAME, AND USE THEREOF” (Suzhou Genhouse Bio Co., Ltd., priority 2023, dated 2024)
pIC50: −log10 of the molar value.

Experiments:
[1] = Pharmacokinetic assay in mice; type: in vivo, Balb/c mice; conditions: male, Balb/c, plasma, mouse
Procedure: Eighteen male Balb/c mice aged 6 to 8 weeks were randomly divided into 2 groups (IV group and PO group). The corresponding compounds were administered to the animals in the IV group by tail intravenous injection at 2 mg/kg, and the corresponding compounds were administered to the animals in the PO group by oral gavage at 10 mg/kg or 100 mg/kg. The animals in the IV group were allowed free access to food and water, and the animals in the PO group were fasted overnight before administration and were fed 4 h after administration. Throughout the experiment, the animals were allowed free access to water. Plasma samples were separately collected at 0.083 h (only group IV), 0.25 h, 0.5 h, 1 h, 2 h, 4 h, 8 h, and 24 h after administration. About 100 µL of blood was collected from the orbit of the animal, placed into a 1.5 mL anticoagulation centrifuge tube, and centrifuged at 8000 rpm and 4 °C for 10 min. The upper plasma sample was transferred to an EP tube. The plasma samples were stored in a refrigerator at -80 °C until sample analysis. Pharmacokinetic parameters of the drug were calculated based on the drug concentration-time data, including the peak concentration Cmax, peak time Tmax, clearance rate CL, steady state apparent volume of distribution Vss, area under drug-time curve AUC, elimination half-life t1/2, bioavailability, and the like. Data below the 80% lower limit of quantification were excluded from the calculation of pharmacokinetic parameters.

[2] = molecular target: T1, hERG Potassium Ion Channel (Homo sapiens, UniProt Q12809); assay: Effect on hERG potassium ion channel (whole-cell patch clamp, HEK293 cells); type: cell-based; conditions: whole-cell patch clamp (Qpatch), room temperature
T1 construct: expressed in transfected cells; host or cells: HEK293
Procedure: HEK293 cells were cultured in a DMEM medium containing 10% fetal bovine serum and 0.8 mg/mL G418 at 37 °C with 5% CO2. The cells were digested by TrypLE™ Express and then centrifuged. The cell density was adjusted to 2 × 10^6 cells/mL. The cells were then gently mixed for 15 to 20 min using a shaker equilibrated at room temperature, and subjected to a patch clamp assay on a machine. The culture medium of the prepared cells was replaced with extracellular fluid. The intracellular fluid and the extracellular fluid were taken from the fluid pool and added to the intracellular fluid pool and the cell and test substance pool of the QPlate chip, respectively. The voltage stimulation of the whole-cell hERG potassium current was recorded by the whole-cell patch clamp, and the experimental data were collected and stored by Qpatch. […] The current detected in compound-free extracellular fluid for each cell served as its own control group, and the detection was repeated twice independently using at least two cells per concentration. […] For data analysis, the current after the action of each drug concentration and the current of the blank control were standardized ((Peak tail currentcompound)/(Peak tail currentvehicle)) [formula] , and then the inhibition rate corresponding to each drug concentration was calculated (1−(Peak tail currentcompound)/(Peak tail currentvehicle)) [formula] . […]

[3] = Pharmacokinetic assay in rats; type: in vivo, SD rats; conditions: rat
Procedure: In this experimental example, the pharmacokinetic behavior of the test compounds after administration by intravenous injection (IV) and oral gavage (PO) in SD rats was tested.
On the day of administration, rats were weighed for actual body weight, and the administration volume was calculated. Each compound was tested in two groups with 3 rats in each group; one group was subjected to administration by single intravenous injection, and the other group was subjected to administration by single oral gavage. The whole blood samples were collected via the jugular vein at prescribed time points (0.25 h, 0.5 h, 1 h, 2 h, 4 h, 8 h, and 24 h after administration). After the blood sample collection, the samples were immediately transferred to labeled commercial sample tubes containing K2-EDTA (0.85-1.15 mg), followed by centrifugation (3200× g, 4 °C, 10 min) and plasma collection. The plasma was transferred to a pre-cooled centrifuge tube, frozen in dry ice, and then stored in an ultra-low temperature freezer at -60 °C or lower until the LC-MS/MS analysis was performed.
Plasma concentrations were determined by the LC-MS/MS method. Plasma drug concentration data for the compounds were processed using a non-compartmental model in the WinNonlin Version 6.3 (Pharsight, Mountain View, CA) pharmacokinetic software. The relevant pharmacokinetic parameters were calculated by a linear-log trapezoidal method.

[4] = SD, plasma, 100 mg/kg, PO 100mpk

T1 sequence (Q12809 whole entry): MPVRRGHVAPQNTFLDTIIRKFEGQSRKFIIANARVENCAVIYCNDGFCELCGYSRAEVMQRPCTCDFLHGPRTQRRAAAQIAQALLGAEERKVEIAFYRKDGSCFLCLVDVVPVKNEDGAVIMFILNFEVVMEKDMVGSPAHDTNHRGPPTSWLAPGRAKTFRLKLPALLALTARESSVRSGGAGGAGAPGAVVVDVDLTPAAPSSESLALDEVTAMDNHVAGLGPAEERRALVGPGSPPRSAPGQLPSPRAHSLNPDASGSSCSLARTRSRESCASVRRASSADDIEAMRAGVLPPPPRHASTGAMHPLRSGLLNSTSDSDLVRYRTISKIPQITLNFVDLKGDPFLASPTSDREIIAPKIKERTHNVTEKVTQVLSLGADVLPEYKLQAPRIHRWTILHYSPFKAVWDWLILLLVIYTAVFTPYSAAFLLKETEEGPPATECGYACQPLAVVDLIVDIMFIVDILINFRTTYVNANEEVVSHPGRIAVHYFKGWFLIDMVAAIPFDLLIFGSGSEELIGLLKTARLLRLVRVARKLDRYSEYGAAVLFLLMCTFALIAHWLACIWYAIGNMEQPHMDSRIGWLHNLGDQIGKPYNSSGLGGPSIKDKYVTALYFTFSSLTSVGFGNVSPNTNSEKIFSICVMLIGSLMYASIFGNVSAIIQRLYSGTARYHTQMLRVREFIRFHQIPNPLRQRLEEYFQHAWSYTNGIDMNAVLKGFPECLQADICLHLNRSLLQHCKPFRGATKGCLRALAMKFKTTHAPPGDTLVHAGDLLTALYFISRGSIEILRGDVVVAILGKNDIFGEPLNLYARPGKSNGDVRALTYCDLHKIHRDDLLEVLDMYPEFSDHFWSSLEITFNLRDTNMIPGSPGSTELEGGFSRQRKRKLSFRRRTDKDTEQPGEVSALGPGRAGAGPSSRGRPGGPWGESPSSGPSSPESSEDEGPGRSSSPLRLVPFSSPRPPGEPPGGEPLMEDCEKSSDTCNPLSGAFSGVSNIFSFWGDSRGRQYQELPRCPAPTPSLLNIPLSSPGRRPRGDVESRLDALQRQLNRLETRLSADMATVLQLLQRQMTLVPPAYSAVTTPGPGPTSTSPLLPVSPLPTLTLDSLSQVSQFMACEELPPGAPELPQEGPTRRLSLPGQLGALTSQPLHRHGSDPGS

Cn1ncc2c(N)nc3cnc(C(=O)N4CCOC[C@@H]4c4ccc(C(F)(F)F)cc4)cc3c21 [Control compound A, reference compound]
AUC(0-t) ([1]; 2 mg/kg, IV 2mpk): 9.6 µM·h
AUC(0-t) ([1]; 100 mg/kg, PO 100mpk): 455 µM·h
Cmax ([1]; 100 mg/kg, PO 100mpk): 35.7 µM
pIC50 [2]: 4.89
AUC(0-t) ([3]; SD, plasma, 2 mg/kg, IV 2mpk): 4.75 µM·h
AUC(0-t) [3, 4]: 122 µM·h
Cmax [3, 4]: 5.42 µM
F ([3]; PO 100mpk vs IV 2 mpk): 51%
